Tests used:
WT STING = target: T1, WT STING (Homo sapiens, UniProt Q86WV6, H232R); assay: Differential Scanning Fluorimetry (DSF) with WT STING; assay type: binding; conditions: thermal shift vs STING apoprotein; 150 μM CDN; 0.1 mg/ml protein; SYPRO Orange
T1 construct: encoded truncated human WT STING or AQ STING (amino acid residues 140-343) with N-terminal 8×His and SUMO tag; 8xHis-SUMO (N, cleaved yes); made in house; host or cells: E. coli Rosetta-gami B (DE3)
Procedure: (§1) WT STING and AQ STING Proteins
(§2) Purified PCR products were cleaved with restriction enzymes BamHI (cat. #R0136S, NEB, Ipswich, USA) and NotI (cat. #R0189S, NEB, Ipswich, USA) and cloned into the pSUMO vector linearized with the identical enzymes.
(§3) DNase I (cat. #D5025, Sigma Aldrich, Czech Republic) and RNase A (cat. #R6513, Sigma Aldrich, Czech Republic) were added (final concentration 50 μg/ml) together with MgCl2 (final concentration 5 mmol·l^−1) to the homogenate and bacteria were lysed using French Press G-M™ High-Pressure Cell Press Homogenizer (1500 psi, 3 cycles). […] The resin was poured into a chromatography column, washed with 50 ml buffer A (50 mmol·l^−1 TrisCl (pH 8.0), 800 mmol·l^−1 NaCl, 3 mmol·l^−1 3-mercaptol; 10% glycerol; 20 mmol·l^−1 imidazole) and 8-His-SUMO tagged STING proteins were eluted with 15 ml buffer A containing 300 mmol·l^−1 imidazole. […] Proteins were concentrated with Amicon® Ultra-15 10 K device (cat. #UFC901008, Merck Millipore, Billerica, USA) and flash frozen in liquid N2.
(§4) Differential Scanning Fluorimetry (DSF) with WT STING and AQ STING
(§5) 20 μL solutions of the reaction mixtures were pipetted in triplicates into 96 well optical reaction plates and thermal denaturation of samples were performed on real time PCR cycler (LightCycler R 480 Instrument II—Roche, Basel, Switzerland). The first derivative of the thermal denaturation curves was performed to calculate denaturing temperatures of STING-CDN complexes and STING apoproteins. The thermal shift for each CDN was calculated by subtracting the average denaturing temperature of STING apoprotein from the average denaturing temperature of STING CDN complex.

AQ STING (G230A-R293Q) = target: T2, AQ STING (G230A-R293Q) (Homo sapiens, UniProt Q86WV6, G230A/H232R/R293Q); assay: Differential Scanning Fluorimetry (DSF) with AQ STING; assay type: binding; conditions: thermal shift vs STING apoprotein; 150 μM CDN; 0.1 mg/ml protein; SYPRO Orange
T2 construct: encoded truncated human WT STING or AQ STING (amino acid residues 140-343) with N-terminal 8×His and SUMO tag; 8xHis-SUMO (N, cleaved yes); made in house; host or cells: E. coli Rosetta-gami B (DE3)
Procedure: as §1, §2, §3, §4, §5

[1] = target: T3, human wild type STING (WT STING) (Homo sapiens, UniProt Q86WV6, H232R); assay: Digitonin assay using 293T wtSTING-FL reporter cells; assay type: cell-based; conditions: 293T wtSTING-FL cells; ISRE firefly luciferase reporter; 30 min in Digitonin buffer, then 5 hours; 8-point dose-response curve
T3 construct: host or cells: 293T (ATCC CRL-3216), stably transfected, with a 4xISRE firefly luciferase reporter
Text: ISRE Reporter Plasmid (pGL64.27-4×ISRE)
Two complementary oligonucleotides of the sequence […] […] […] […] […] The oligonucleotides were mixed in equal molar amounts, hybridized, and cleaved by restriction endonucleases HindIII (cat. #. R0104S, NEB, Ipswich, USA) and BglII (cat. #R0144S, NEB, Ipswich, USA). Ultimately, they were ligated into plasmid pGL4.27 (cat. #E6651, Promega, Madison, USA) linearized with the same enzymes. As result the sequence with four ISRE sites was placed upstream of the minimum promoter of firefly luciferase reporter gene.
After 5 minutes incubation at room temperature (RT), 250 μL of the mixture was added dropwise to the cells in one well. Cells were incubated 36 hours at 37° C. with 5% CO2, and then detached with 0.05% Trypsin and 0.22 g/L EDTA (both cat. #L0941, Biowest, Riverside, USA).
Transfected cells were seeded onto poly-D-lysine coated six well plates at density 50,000 cells per 1 cm^2 in DMEM medium with high glucose containing 10% heat inactivated FBS, 30 μg/mL blasticidin (cat. #ant-bl-05, InvivoGen, San Diego, USA), 0.06 mg/ml Penicillin G and 0.1 mg/ml Streptomycin Sulfate (both cat. #. L0018, Biowest, Riverside, USA). The medium was replenished every 3-4 days until visible colonies of cells resistant to blasticidin were formed.
Blasticidin resistant cells stably expressing WT STING were further transfected with pGL64.27-4×ISRE plasmid following the same procedure as described above. […] Homogeneous culture of stably double transfected cells was prepared by limiting dilution of cells in 96 well plates and wells with cells were selected that originated from a single cell.
The medium was removed next day and three fold serial dilutions of compounds in Digitonin buffer containing 50 mmol·l^−1 HEPES (cat. #H3375, Sigma Aldrich, Czech Republic) pH 7.0, 100 mmol·l^−1 KCl, 3 mmol·l^−1 MgCl2, 0.1 mmol·l^−1 DTT (cat. #D0632, Sigma Aldrich, Czech Republic), 85 mmol·l^−1 Sucrose (cat. #S7903, Sigma Aldrich, Czech Republic), 0.2% BSA (cat. #A2153, Sigma Aldrich, Czech Republic), 1 mmol·l^−1 ATP (cat. #A1852, Sigma Aldrich, Czech Republic), 0.1 mmol·l^−1 GTP (cat. #G8877, Sigma Aldrich, Czech Republic), and 10 μg/mL Digitonin A (cat. #D141, Sigma Aldrich, Czech Republic) were added to the cells. The buffer was removed after 30 minutes incubation at 37° C. with 5% CO2, the cells were washed once with 100 μl of cultivation medium, and 100 μl of medium was added to each well. The plates with cells were incubated for 5 hours at 37° C. with 5% CO2, 50 μl of the medium was removed and 30 μl of ONE-Glo™ Luciferase Assay System reagent (cat. #E6120, Promega, Madison, USA) was added to each well. Luminescence was read on Synergy H1 (Biotek, Winooski, USA).

T1 sequence (Q86WV6 140-343 H232R): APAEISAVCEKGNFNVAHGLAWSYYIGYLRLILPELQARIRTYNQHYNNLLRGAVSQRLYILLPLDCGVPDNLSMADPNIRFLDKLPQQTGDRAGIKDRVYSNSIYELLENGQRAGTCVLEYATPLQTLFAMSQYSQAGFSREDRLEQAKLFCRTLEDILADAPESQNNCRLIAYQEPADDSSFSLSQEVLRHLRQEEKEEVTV
T3 sequence (Q86WV6 whole entry H232R): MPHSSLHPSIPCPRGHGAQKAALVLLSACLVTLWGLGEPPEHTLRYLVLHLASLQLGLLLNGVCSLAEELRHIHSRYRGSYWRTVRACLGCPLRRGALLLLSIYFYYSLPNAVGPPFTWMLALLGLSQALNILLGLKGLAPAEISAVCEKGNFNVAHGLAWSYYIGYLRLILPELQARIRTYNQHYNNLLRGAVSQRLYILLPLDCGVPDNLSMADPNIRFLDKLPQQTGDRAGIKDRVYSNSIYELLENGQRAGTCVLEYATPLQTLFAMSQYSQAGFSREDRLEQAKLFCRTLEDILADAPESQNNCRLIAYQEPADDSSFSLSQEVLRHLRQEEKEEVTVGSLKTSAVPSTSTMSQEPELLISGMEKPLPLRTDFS
T2 sequence (Q86WV6 140-343 G230A/H232R/R293Q): as the sequence (Q86WV6 140-343 H232R) above, with G91A, R154Q counted along it

Row | SMILES | ΔTm at 150 µM (WT STING) [°C] | ΔTm at 150 µM (AQ STING (G230A-R293Q)) [°C] | EC50 [1] [nM] | DSF ΔTm WT STING (WT STING) [°C] | DSF ΔTm AQ STING (AQ STING (G230A-R293Q)) [°C]
1 | Nc1ncnc2c1ncn2[C@@H]1O[C@@H]2OCP(=O)(O)OC3C(O)[C@H](n4cnc5c(N)ncnc54)O[C@@H]3COP(=O)(O)OC2C1O (single isomer, unassigned) [Compound 32] | 0.8 | 6.4 | 1200 |  | 
2 | Nc1nc2c(ncn2[C@@H]2O[C@@H]3COP(=O)(O)O[C@@H]4[C@H](O)[C@@H](COP(=O)(O)O[C@@H]2[C@@H]3O)O[C@H]4n2cnc3c(N)ncnc32)c(=O)[nH]1 [2′2′-cGAMP, reference compound] |  |  | 30 | 11.5 | 19.4
3 | Nc1ncnc2c1ncn2[C@@H]1O[C@@H]2COP(=O)(O)O[C@H]3[C@@H](O)[C@H](n4cnc5c(N)ncnc54)O[C@@H]3COP(=O)(O)O[C@H]2[C@H]1O [3′3′c-di-AMP, 3′3′-c-di-AMP, reference compound] |  |  | 300 | 2.6 | 9.3
4 | Nc1nc2c(ncn2[C@@H]2O[C@@H]3COP(=O)(O)O[C@H]4[C@@H](O)[C@H](n5cnc6c(=O)[nH]c(N)nc65)O[C@@H]4COP(=O)(O)O[C@H]3[C@H]2O)c(=O)[nH]1 [3′3′c-di-GMP, 3′3′-c-di-GMP, reference compound] |  |  | 5800 | 2.6 | 7.7
5 | Nc1ncnc2c1ncn2[C@@H]1O[C@@H]2OCP(=O)(O)OC3C(O)[C@H](n4cnc5c(N)ncnc54)O[C@@H]3OCP(=O)(O)OC2C1O (stereo partly drawn) [Compound 31, (2R,3R,3aS,7aR,9R,10R,10aS,14aR)-2,9-bis(6-amino-9H-purin-9-yl)-3,5,10,12-tetrahydroxydecahydrodifuro[2,3-e:2′,3′-k][1,4,7,10]tetraoxa[2,8]diphosphacyclododecine 5,12-dioxide] | 0.1 | 2.5 | 19200 |  | 
6 | Nc1ncnc2c1ncn2[C@@H]1O[C@@H]2COCP(=O)(O)OC3C(F)[C@H](n4cnc5c(N)ncnc54)O[C@@H]3COP(=O)(O)OC2C1O (stereo partly drawn) [Compound 34, (2R,3R,3aS,7aR,9R,10R,10aR,15aR)-2,9-bis(6-amino-9H-purin-9-yl)-10-fluoro-3,5,12-trihydroxydecahydro-2H-difuro[2,3-e:2′,3′-1][1,3,7,10]tetraoxa[2,8]diphosphacyclotridecine 5,12-dioxide] | 0.2 | 4.3 | 19600 |  | 
7 | Nc1nc2c(ncn2[C@@H]2O[C@@H]3COCP(=O)(O)OC4C(F)[C@H](n5cnc6c(N)ncnc65)O[C@@H]4COP(=O)(O)OC3C2O)c(=O)[nH]1 (stereo partly drawn) [Compound 35, 2-amino-9-((2R,3R,3aS,7aR,9R,10R,10aR,15aR)-9-(6-amino-9H-purin-9-yl)-10-fluoro-3,5,12-trihydroxy-5,12-dioxidodecahydro-2H-difuro[2,3-e:2′,3′-l][1,3,7,10]tetraoxa[2,8]diphosphacyclotridecin-2-yl)-1,9-dihydro-6H-purin-6-one] | 2.3 | 9 | 2400 |  | 
8 | Nc1nc2c(ncn2[C@@H]2O[C@@H]3OCP(=O)(O)OC4C(O)[C@H](n5cnc6c(=O)[nH]c(N)nc65)O[C@@H]4OCP(=O)(O)OC3C2O)c(=O)[nH]1 (stereo partly drawn) [Compound 36] | 0.6 | 5.6 | 8100 |  | 
9 | Nc1nc2c(ncn2[C@@H]2O[C@@H]3OCP(=O)(O)OC4C(O)[C@H](n5cnc6c(N)ncnc65)O[C@@H]4COP(=O)(O)OC3C2O)c(=O)[nH]1 (stereo partly drawn) [Compound 37] | 7.6 | 15.9 | 5 |  | 
10 | Nc1nc2c(ncn2[C@@H]2O[C@@H]3OCP(=O)(O)OC4C(O)[C@H](n5cnc6c(N)ncnc65)O[C@@H]4OCP(=O)(O)OC3C2O)c(=O)[nH]1 (stereo partly drawn) [Compound 38] | 1.9 | 9.5 | 200 |  | 
11 | CNc1ncnc2c1ncn2[C@@H]1O[C@@H]2COP(=O)(O)OC3C(O)[C@H](n4cnc5c(=O)[nH]c(N)nc54)O[C@@H]3OCP(=O)(O)OC2C1O (stereo partly drawn) [Compound 39] | 2.9 | 8 | 120 |  | 
12 | Nc1nc(Cl)c2ncn([C@@H]3O[C@@H]4COP(=O)(O)OC5C(O)[C@H](n6cnc7c(N)ncnc76)O[C@@H]5OCP(=O)(O)OC4C3O)c2n1 (stereo partly drawn) [Compound 40] | 0.4 | 2.1 | 7500 |  | 
13 | COc1nc(N)nc2c1ncn2[C@@H]1O[C@@H]2COP(=O)(O)OC3C(O)[C@H](n4cnc5c(N)ncnc54)O[C@@H]3OCP(=O)(O)OC2C1O (stereo partly drawn) [Compound 41] | 0.1 | 1.6 | 17600 |  | 
14 | Nc1ncc2ncn([C@@H]3O[C@@H]4COP(=O)(O)OC5C(O)[C@H](n6cnc7c(N)ncnc76)O[C@@H]5OCP(=O)(O)OC4C3O)c2n1 (stereo partly drawn) [Compound 42] | 0.7 | 6.6 | 600 |  | 
15 | Nc1nc2c(ccn2[C@@H]2O[C@@H]3COP(=O)(O)OC4C(O)[C@H](n5cnc6c(N)ncnc65)O[C@@H]4OCP(=O)(O)OC3C2O)c(=O)[nH]1 (stereo partly drawn) [Compound 43] | 0.6 | 3.3 | 4700 |  | 
16 | Nc1nc2c(ncn2[C@@H]2O[C@@H]3COP(=O)(O)OC4C(O)[C@H](n5cnc6c(N)ncnc65)O[C@@H]4OCP(=O)(O)OC3C2O)c(=O)[nH]1 (stereo partly drawn) [Compound 44] | 4.5 | 11.2 | 90 |  | 
17 | CSc1nc(N)nc2c1ncn2[C@@H]1O[C@@H]2COP(=O)(O)OC3C(O)[C@H](n4cnc5c(N)ncnc54)O[C@@H]3OCP(=O)(O)OC2C1O (stereo partly drawn) [Compound 45] | 0 | 1.1 | 20800 |  | 
18 | Nc1ncnc2c1ncn2[C@@H]1O[C@@H]2COP(=O)(O)OC3C(O)[C@H](n4cnc5c(N)ncnc54)O[C@@H]3OCP(=O)(O)OC2C1N (stereo partly drawn) [Compound 47] | 0.1 | 2.1 | 20800 |  | 
19 | CNc1ncnc2c1ncn2[C@@H]1O[C@@H]2COP(=O)(O)OC3C(O)[C@H](n4cnc5c(N)ncnc54)O[C@@H]3OCP(=O)(O)OC2C1O (stereo partly drawn) [Compound 48] | 0.6 | 4.4 | 1500 |  | 
20 | Nc1ncnc2c1ncn2[C@@H]1O[C@@H]2OCP(=O)(O)OC3C(O)[C@H](n4cnc5c(N)ncnc54)O[C@@H]3COP(=O)(S)OC2C1O (stereo partly drawn) [Compound 49] | 0.5 | 4.2 | 1500 |  | 
21 | Nc1ncnc2c1ccn2[C@@H]1O[C@@H]2COP(=O)(O)OC3C(O)[C@H](n4cnc5c(N)ncnc54)O[C@@H]3OCP(=O)(O)OC2C1O (stereo partly drawn) [Compound 50] | 0.4 | 2 | 8600 |  | 
